Reference: patent US20170022171A1, “2,5-DISUBSTITUTED CYCLOPENTANECARBOXYLIC ACIDS AND THEIR USE” (Bayer Pharma Aktiengesellschaft, priority 2014, published 2017)

Assays:
Type in all cases: biochemical
MMP-2 = target: T1, MMP-2 (Homo sapiens, UniProt P08253); assay: In vitro MMP-2 inhibition test
T1 construct: purchased R&D Systems 902-MP
T1 sequence (P08253 110-660): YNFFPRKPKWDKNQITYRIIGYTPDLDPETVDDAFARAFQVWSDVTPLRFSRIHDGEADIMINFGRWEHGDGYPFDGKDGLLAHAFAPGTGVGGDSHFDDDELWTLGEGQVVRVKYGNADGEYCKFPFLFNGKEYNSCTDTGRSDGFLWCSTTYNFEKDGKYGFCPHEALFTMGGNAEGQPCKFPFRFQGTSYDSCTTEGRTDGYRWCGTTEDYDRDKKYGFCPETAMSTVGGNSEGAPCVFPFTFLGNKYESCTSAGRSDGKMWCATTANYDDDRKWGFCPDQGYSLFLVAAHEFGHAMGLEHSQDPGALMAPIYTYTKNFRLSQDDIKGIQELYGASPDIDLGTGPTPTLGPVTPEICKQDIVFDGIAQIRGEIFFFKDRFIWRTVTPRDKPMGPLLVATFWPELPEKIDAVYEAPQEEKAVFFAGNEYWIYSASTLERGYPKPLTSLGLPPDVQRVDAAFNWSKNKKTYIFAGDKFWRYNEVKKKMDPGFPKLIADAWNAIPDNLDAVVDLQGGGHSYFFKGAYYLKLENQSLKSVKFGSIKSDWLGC
Source text: (§1) The MMP-mediated amidolytic cleavage of a suitable peptide substrate leads to an increase in fluorescent light here too. The signal intensity of the fluorescent light is directly proportional to the enzyme activity. The active concentration of a test compound at which half the enzyme is inhibited (50% signal intensity of the fluorescent light) is reported as the IC50 value.
(§2) Recombinant MMP-2 (from R&D Systems, 902-MP) is chemically activated in accordance with the manufacturer's instructions using APMA. 1 μl of the test compound to be analysed (as a solution in DMSO, suitable concentrations, for example, 1 nM to 30 μM) is pipetted into 24 μl of activated enzyme (final concentration, for example, 2 nM) in reaction buffer (50 mM Tris/HCl pH 7.5, 10 mM CaCl2, 150 mM NaCl, 0.05% Brij®-35) in a white 384-hole microtiter plate (MTP). The enzymatic reaction is started by adding the intramolecularly quenched Mca-Pro-Leu-Gly-Leu-Dpa(Dnp)-Ala-Arg-NH2 substrate (final concentration, for example, 10 μM; R&D Systems, ES-001), so as to result in a total test volume of 50 μl. The course of the MMP-2 reaction is measured by measuring the fluorescence intensity (excitation 320 nm, emission 410 nm) over a suitable period of time (for example over 120 min at a temperature of 32° C.).

MMP-13 = target: T2, MMP-13 (Homo sapiens, UniProt P45452); assay: In vitro MMP-13 inhibition test
T2 construct: purchased R&D Systems 511-MP
Source text: as §1
as §2, with “Recombinant MMP-13” for “Recombinant MMP-2”, “Systems, 511-MP)” for “Systems, 902-MP)”, “example, 0.1” for “example, 2”, “50” for “50 μl.”, “the MMP-13” for “the MMP-2”

MMP-9 = target: T3, MMP-9 (Homo sapiens, UniProt P14780); assay: In vitro MMP-9 inhibition test
T3 construct: purchased R&D Systems 911-MP
Source text: as §1
as §2, with “Recombinant MMP-9” for “Recombinant MMP-2”, “Systems, 911-MP)” for “Systems, 902-MP)”, “example, 0.1” for “example, 2”, “the MMP-9” for “the MMP-2”

MMP-10 = target: T4, MMP-10 (Homo sapiens, UniProt P09238); assay: In vitro MMP-10 inhibition test
T4 construct: purchased R&D Systems 910-MP
Source text: as §1
as §2, with “MMP-10” for “MMP-2”, “910-MP)” for “902-MP)”, “Mca-Arg-Pro-Lys-Pro-Val-Glu-Nval-Trp-Arg-Lys(Dnp)-NH2” for “Mca-Pro-Leu-Gly-Leu-Dpa(Dnp)-Ala-Arg-NH2”, “ES-002),” for “ES-001),”

T4 sequence (P09238 99-476): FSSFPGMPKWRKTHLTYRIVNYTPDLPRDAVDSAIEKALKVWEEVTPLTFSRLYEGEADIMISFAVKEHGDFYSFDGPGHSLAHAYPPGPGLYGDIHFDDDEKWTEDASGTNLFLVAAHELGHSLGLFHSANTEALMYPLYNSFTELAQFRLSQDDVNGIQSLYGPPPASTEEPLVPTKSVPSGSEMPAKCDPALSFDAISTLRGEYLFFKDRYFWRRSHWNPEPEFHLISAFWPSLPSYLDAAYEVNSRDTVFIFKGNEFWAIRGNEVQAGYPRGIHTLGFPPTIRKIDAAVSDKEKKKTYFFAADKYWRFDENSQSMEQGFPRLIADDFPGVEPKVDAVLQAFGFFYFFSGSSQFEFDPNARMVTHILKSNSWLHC
T3 sequence (P14780 107-707 limits assumed): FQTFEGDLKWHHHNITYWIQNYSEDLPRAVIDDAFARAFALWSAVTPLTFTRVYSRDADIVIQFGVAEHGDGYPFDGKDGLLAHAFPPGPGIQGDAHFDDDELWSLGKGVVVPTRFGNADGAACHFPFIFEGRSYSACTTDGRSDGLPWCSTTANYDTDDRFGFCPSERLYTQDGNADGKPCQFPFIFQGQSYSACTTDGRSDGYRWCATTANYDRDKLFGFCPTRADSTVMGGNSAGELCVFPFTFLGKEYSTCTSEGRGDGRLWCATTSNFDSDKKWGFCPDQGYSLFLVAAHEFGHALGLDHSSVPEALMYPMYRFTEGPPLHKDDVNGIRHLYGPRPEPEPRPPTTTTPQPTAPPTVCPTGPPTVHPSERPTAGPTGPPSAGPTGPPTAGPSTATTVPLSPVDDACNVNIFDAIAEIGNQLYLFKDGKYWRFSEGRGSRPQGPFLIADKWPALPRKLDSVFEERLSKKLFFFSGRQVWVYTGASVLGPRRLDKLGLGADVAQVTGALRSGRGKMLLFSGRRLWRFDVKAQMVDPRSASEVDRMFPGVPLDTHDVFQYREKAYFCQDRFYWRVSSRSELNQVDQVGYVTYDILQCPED

Row | IC50 (MMP-2) [nM] | IC50 (MMP-13) [nM] | IC50 (MMP-9) [nM] | IC50 (MMP-10) [nM] | Compound
1 | 100 | 50 | 21 | 21 | Cc1ccc2nnn(C[C@@H]3CC[C@H](C(=O)c4ccc(OCc5ccccc5)cc4)[C@H]3C(=O)O)c(=O)c2c1 (racemic) [Example 91, (+/−)-(1RS,2RS,5SR)-2-[4-(Benzyloxy)benzoyl]-5-[(6-methyl-4-oxo-1,2,3-benzotriazin-3(4H)-yl)methyl]cyclopentanecarboxylic acid]
2 | 280 | 300 | 57 | 93 | CCCCCCOc1ccc(C(=O)[C@@H]2CC[C@H](Cn3nnc4ccc(C)cc4c3=O)[C@H]2C(=O)O)cc1 (single isomer, unassigned) [Example 121, (+)-(1RS,2RS,5SR)-2-[4-(Hexyloxy)benzoyl]-5-[(6-methyl-4-oxo-1,2,3-benzotriazin-3(4H)-yl)methyl]cyclopentanecarboxylic acid]
3 | 1100 | 190 | 150 | 100 | Cc1ccc2nnn(C[C@@H]3CC[C@H](C(=O)c4ccc(OCc5cccc(OC(F)(F)F)c5)cc4)[C@H]3C(=O)O)c(=O)c2c1 (racemic) [Example 109, (+/−)-(1RS,2SR,5RS)-2-[(6-Methyl-4-oxo-1,2,3-benzotriazin-3(4H)-yl)methyl]-5-(4-{[3-(trifluoromethoxy)benzyl]oxy}benzoyl)cyclopentanecarboxylic acid]
4 | 970 | 770 | 550 | 30 | O=C(O)[C@@H]1[C@@H](Cn2nnc3ccc(C(F)(F)F)cc3c2=O)CC[C@H]1C(=O)c1ccc(SCc2cccc(Cl)c2)cc1 (single isomer, unassigned) [Example 77, (+)-(1RS,2RS,5SR)-2-{4-[(3-Chlorobenzyl)sulphanyl]benzoyl}-5-{[4-oxo-6-(trifluoromethyl)-1,2,3-benzotriazin-3(4H)-yl]methyl}cyclopentanecarboxylic acid]
5 | 440 | 380 | 170 | 21 | O=C(O)[C@H]1[C@H](Cn2nnc3ccc(C(F)(F)F)cc3c2=O)CC[C@@H]1C(=O)c1ccc(OCC2CCCCC2)cc1 (racemic) [Example 40, (+/−)-(1RS,2RS,5SR)-2-[4-(Cyclohexylmethoxy)benzoyl]-5-{[4-oxo-6-(trifluoromethyl)-1,2,3-benzotriazin-3(4H)-yl]methyl}cyclopentanecarboxylic acid]

Further lines, the compound ahead of its results:

Row | Compound | IC50 (MMP-2) [nM] | IC50 (MMP-13) [nM] | IC50 (MMP-9) [nM] | IC50 (MMP-10) [nM]
6 | O=C(O)[C@H]1[C@H](Cn2nnc3ccc(C(F)(F)F)cc3c2=O)CC[C@@H]1C(=O)c1ccc(OCCCc2ccccc2)cc1 (racemic) [Example 39, (+/−)-(1RS,2SR,5RS)-2-{[4-Oxo-6-(trifluoromethyl)-1,2,3-benzotriazin-3(4H)-yl]methyl}-5-[4-(3-phenylpropoxy)benzoyl]cyclopentanecarboxylic acid] | 4600 | 1600 | 780 | 170
7 | O=C(O)[C@@H]1[C@@H](Cn2nnc3ccc(C(F)(F)F)cc3c2=O)CC[C@H]1C(=O)c1ccc(SCc2ccc(Cl)c(Cl)c2)cc1 (single isomer, unassigned) [Example 80, (+)-(1RS,2RS,5SR)-2-{4-[(3,4-Dichlorobenzyl)sulphanyl]benzoyl}-5-{[4-oxo-6-(trifluoromethyl)-1,2,3-benzotriazin-3(4H)-yl]methyl}cyclopentanecarboxylic acid] | 1400 | 840 | 780 | 53
8 | O=C(O)[C@H]1[C@H](Cn2nnc3ccccc3c2=O)CC[C@@H]1C(=O)c1ccc(OCCC2CCCCC2)cc1 (racemic) [Example 5, (+/−)-(1RS,2RS,5SR)-2-[4-(2-Cyclohexylethoxy)benzoyl]-5-[(4-oxo-1,2,3-benzotriazin-3(4H)-yl)methyl]cyclopentanecarboxylic acid] | 220 | 350 | 960 | 93
9 | CCCCOc1ccc(C(=O)[C@@H]2CC[C@H](Cn3nnc4ccc(C(F)(F)F)cc4c3=O)[C@H]2C(=O)O)cc1 (single isomer, unassigned) [Example 67, (+)-(1RS,2RS,5SR)-2-(4-Butoxybenzoyl)-5-{[4-oxo-6-(trifluoromethyl)-1,2,3-benzotriazin-3(4H)-yl]methyl}cyclopentanecarboxylic acid] | 270 | 270 | 61 | 14
10 | O=C(O)[C@@H]1[C@@H](Cn2nnc3ccc(C(F)(F)F)cc3c2=O)CC[C@H]1C(=O)c1ccc(OCc2cccc(C(F)(F)F)c2)cc1 (single isomer, unassigned) [Example 19, (+)-(1RS,2SR,5RS)-2-{[4-Oxo-6-(trifluoromethyl)-1,2,3-benzotriazin-3(4H)-yl]methyl}-5-(4-{[3-(trifluoromethyl)benzyl]oxy}benzoyl)cyclopentanecarboxylic acid] | 3800 | 2600 | 1000 | 270
11 | (+)-(1RS,2SR,5RS)-2-{[4-Oxo-6-(trifluoromethyl)-1,2,3-benzotriazin-3(4H)-yl]methyl}-5-{4-[(2-phenylethy)sulphanyl]benzoyl}cyclopentanecarboxylic acid [Example 83] | 6700 | 2800 | 2100 | 120
12 | Cc1cccc(COc2ccc(C(=O)[C@H]3CC[C@@H](Cn4nnc5ccc(C)cc5c4=O)[C@@H]3C(=O)O)cc2)c1 (racemic) [Example 97, (+/−)-(1RS,2RS,5SR)-2-{4-[(3-Methylbenzyl)oxy]benzoyl}-5-[(6-methyl-4-oxo-1,2,3-benzotriazin-3(4H)-yl)methyl]cyclopentanecarboxylic acid] | 2300 | 1500 | 740 | 160
